In patent US20080249042A1, “All-Trans-Retinol: All-Trans-13,14-Dihydroretinol Saturase and Methods of Its Use” (UNIVERSITY OF WASHINGTON, priority 2004, published 2008):

What was measured:
[1] = system: RAR/RXR heterodimers; assay: F9-RARE-lacZ DR5 RARE reporter cell assay; conditions: linear part of the dose-response curve
Procedure: RARE and RXRE Activation Assay. […] The RA-responsive F9 cell line was transfected with a reporter construct of an RARE derived from the human retinoic acid receptor-β gene (RAR-β) placed upstream of the Escherichia coli lacZ gene. […] Cells were grown in L15-CO2 media containing N-3 supplements and antibiotics. […] After 24 h, cells were split into 24-well plates to ensure an equal number of transfected cells in each assay well. Cells were stimulated with appropriate concentrations of all-trans-RA, 9-cis-RA, or all-trans-DRA. After 48 h, the expression of β-galactosidase was assayed as described above.

[2] = target: T1, mouse RetSat (Mus musculus, UniProt Q64FW2); conditions: earlier report, Moise et al. 2004; cited from earlier work
T1 construct: expressed in transfected cells
T1 sequence (Q64FW2 26-609): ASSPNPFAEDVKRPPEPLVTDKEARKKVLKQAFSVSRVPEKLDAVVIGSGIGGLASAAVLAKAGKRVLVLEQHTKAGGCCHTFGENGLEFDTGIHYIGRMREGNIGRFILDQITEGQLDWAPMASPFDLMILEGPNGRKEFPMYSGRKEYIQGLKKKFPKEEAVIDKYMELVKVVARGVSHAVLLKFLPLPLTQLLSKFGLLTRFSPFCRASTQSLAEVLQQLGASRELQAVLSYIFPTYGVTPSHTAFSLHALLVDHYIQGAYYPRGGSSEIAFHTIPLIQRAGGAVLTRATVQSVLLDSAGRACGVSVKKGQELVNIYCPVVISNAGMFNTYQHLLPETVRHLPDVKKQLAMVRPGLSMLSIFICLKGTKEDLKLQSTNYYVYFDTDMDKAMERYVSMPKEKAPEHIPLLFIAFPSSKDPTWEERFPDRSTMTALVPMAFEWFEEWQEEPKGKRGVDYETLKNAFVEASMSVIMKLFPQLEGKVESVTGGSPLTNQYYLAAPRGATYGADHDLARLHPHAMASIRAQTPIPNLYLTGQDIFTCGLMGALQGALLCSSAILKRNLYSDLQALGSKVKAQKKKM

[3] = target: T2, tomato CRTISO (Solanum lycopersicum, UniProt Q8S4R4); assay: CRTISO activity in transfected HEKK cells; assay type: cell-based; conditions: CRTISO-expressing cells, overnight, in the dark
T2 construct: expressed in transfected cells
T2 sequence (Q8S4R4 with tags, fused parts or gaps): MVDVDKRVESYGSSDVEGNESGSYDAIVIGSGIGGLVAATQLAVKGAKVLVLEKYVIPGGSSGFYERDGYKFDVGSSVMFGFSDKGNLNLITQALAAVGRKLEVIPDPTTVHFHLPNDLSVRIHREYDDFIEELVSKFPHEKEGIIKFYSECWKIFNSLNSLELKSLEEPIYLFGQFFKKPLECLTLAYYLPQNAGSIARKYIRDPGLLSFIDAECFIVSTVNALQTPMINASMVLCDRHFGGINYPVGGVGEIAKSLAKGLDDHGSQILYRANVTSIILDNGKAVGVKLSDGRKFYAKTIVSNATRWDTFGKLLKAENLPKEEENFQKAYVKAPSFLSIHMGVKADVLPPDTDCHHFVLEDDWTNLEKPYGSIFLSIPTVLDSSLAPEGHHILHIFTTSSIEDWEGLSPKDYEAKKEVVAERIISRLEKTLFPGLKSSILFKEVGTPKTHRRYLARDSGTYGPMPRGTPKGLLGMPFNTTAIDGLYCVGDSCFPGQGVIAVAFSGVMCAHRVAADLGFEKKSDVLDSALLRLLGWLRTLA
Procedure: 7Z,9Z,9′Z,7′Z-Tetra-cis-tycopene purification and reverse-phase HPLC analysis of carotenoids. Carotenoid extraction and analysis were performed under dim red light. One gram from the fruit of a tangerine tomato was freeze-thawed three times and extracted with 2 ml PBS, 2 ml of ethanol, and 6 ml of hexane with the aid of a douncer. The organic phase was dried and resuspended in ethanol/tetrahydrofuran (9:1), and examined by reverse-phase HPLC System I (Prontosil, 200-3-C30, 3 μm, 4.6 mm×250 mm, Bischoff Chromatography, Leonberg, Germany) with a mobile phase of 75% tert-butyl methyl ether/25% methanol and a flow rate of 1 ml/min. More than 90% of the extract consisted of 7Z,9Z,9′Z,7′Z-tetra-cis-lycopene identified based on its published UV/VIS absorption spectrum in hexane with the following characteristics: shoulder at λ=417 nm, ε=90,000 M^−1cm^−1, λmax=437 nm, ε=105,000 M−1 cm^−1, shoulder at λ=461 nm ε=70,000 M^−1cm^−1. Bradford, Anal Biochem 72:248-254, 1976.
Enzyme assays of RetSat and CRTISO-catalyzed reactions. For enzyme assay, cells were seeded in six-well plates and expression of RetSat or CRTISO was induced with 1 μg/ml tetracycline 48 hr prior to analysis. […] For retinol and dihydroretinol analysis the methanol:water mixture was extracted with two volumes of hexane, then the organic phase was dried, resuspended in hexane, and analyzed by normal-phase HPLC. […]

## CC1=C(/C=C/C(C)=C/C=C/C(C)CC(=O)O)C(C)(C)CCC1 (stereo not drawn) [all-trans-DRA, all-trans-13,14-dihydroretinoic acid]
[1]
  Fold less effective than all-trans-RA in activating DR5-response elements: about 100 fold

## CC1=C(/C=C/C(C)=C/C=C/C(C)=C/C(=O)O)C(C)(C)CCC1 [all-trans-RA, all-trans-retinoic acid, reference compound]
[2]
  Saturation by RetSat: does not saturate

## CC1=C(/C=C/C(C)=C/C=C/C(C)=C/CO)C(C)(C)CCC1 [all-trans-ROL, all-trans-retinol]
[3]
  Conversion by CRTISO (substrate activity): no saturase activity
